Results taken from ChEMBL document CHEMBL1201862, “PubChem BioAssay data set” (2004).
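Step 1: Grow cells in 96-well plates. Step 2: Expose to compound for 48 hours at 5 concentrations. Step 3: Interpolate endpoints linearly; if unreached, use highest concentration. GI50: concentration for 50% inhibition of growth.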 Calls of active or inactive are those of the source. Rule as the data show it: active = GI50 up to about 1.1 µM and inactive = higher.

Key:
Experiment in all cases: DTP human tumour cell line panel, 48 h
786-0 = test system: 786-0
ACHN = test system: ACHN
CCRF-CEM = test system: CCRF-CEM
DU-145 = test system: DU-145
HL-60 = test system: HL-60
IGROV-1 = test system: IGROV-1
LOX IMVI = test system: LOX IMVI
M14 = test system: M14
MCF7 = test system: MCF7
MDA-N = test system: MDA-N
Malme-3M = test system: Malme-3M
NCI-H226 = test system: NCI-H226
NCI-H522 = test system: NCI-H522
NCI/ADR-RES = test system: NCI/ADR-RES
SF-268 = test system: SF-268
SF-295 = test system: SF-295
SK-MEL-2 = test system: SK-MEL-2
SK-MEL-5 = test system: SK-MEL-5
TK-10 = test system: TK-10
UACC-62 = test system: UACC-62

| Structure (SMILES) | GI50 (786-0) | GI50 (ACHN) | GI50 (CCRF-CEM) | GI50 (DU-145) | GI50 (HL-60) | GI50 (IGROV-1) | GI50 (LOX IMVI) | GI50 (M14) | GI50 (MCF7) | GI50 (MDA-N) | GI50 (Malme-3M) | GI50 (NCI-H226) | GI50 (NCI-H522) | GI50 (NCI/ADR-RES) | GI50 (SF-268) | GI50 (SF-295) | GI50 (SK-MEL-2) | GI50 (SK-MEL-5) | GI50 (TK-10) | GI50 (UACC-62) |
| --- | --- | --- | --- | --- | --- | --- | --- | --- | --- | --- | --- | --- | --- | --- | --- | --- | --- | --- | --- | --- |
| Cc1ccc(S[C@@H](C)[C@@](O)(C(N)=O)c2ccccc2)cc1 | 72.6 µM (inactive) | 68.5 µM (inactive) | 7.67 µM (inactive) | 72.9 µM (inactive) | 37.3 µM (inactive) | 3.74 µM (inactive) | 14.7 µM (inactive) | > 100 µM (inactive) | 44.8 µM (inactive) | 33.8 µM (inactive) | 21 µM (inactive) | 64.4 µM (inactive) | 16.7 µM (inactive) | 19.9 µM (inactive) | > 100 µM (inactive) | 18.5 µM (inactive) | 39.4 µM (inactive) | 20.6 µM (inactive) | > 100 µM (inactive) | 40.3 µM (inactive) |
| CCCC(CC)c1cc(O)c(O)cc1C(CC)CCC (stereo not given) | > 10 µM (inactive) | > 10 µM (inactive) | > 10 µM (inactive) | > 10 µM (inactive) | > 10 µM (inactive) | > 10 µM (inactive) | > 10 µM (inactive) | > 10 µM (inactive) | > 10 µM (inactive) | > 10 µM (inactive) | > 10 µM (inactive) | > 10 µM (inactive) | > 10 µM (inactive) | > 10 µM (inactive) | > 10 µM (inactive) | > 10 µM (inactive) | > 10 µM (inactive) | > 10 µM (inactive) | > 10 µM (inactive) | > 10 µM (inactive) |
| CCOC(=O)c1cc(C2=CCNC2=O)c(-c2cc(C)no2)[nH]1 | 40 µM (inactive) | 52.1 µM (inactive) | 34 µM (inactive) | > 100 µM (inactive) | 22.3 µM (inactive) | 75.3 µM (inactive) | 86.5 µM (inactive) | 51.1 µM (inactive) | 70 µM (inactive) | 94.6 µM (inactive) | > 100 µM (inactive) | > 100 µM (inactive) | 16.7 µM (inactive) | 30.5 µM (inactive) | > 100 µM (inactive) | 29.8 µM (inactive) | > 100 µM (inactive) | 66.7 µM (inactive) | > 100 µM (inactive) | 39.1 µM (inactive) |
| CCC1CN2CCc3c([nH]c4ccccc34)[C@@](C(=O)OC)(c3cc4c(cc3OC)N(C)C3C(O)(C(=O)OC)C(C(=O)OC)C5(CC)C=CCN6CCC43C65)C[C@@H](C2)[C@@H]1C(C)(C)C (stereo not given in full) | 0.439 µM (active) | 0.6 µM (active) | 0.348 µM (active) | 0.342 µM (active) | 0.305 µM (active) | 0.668 µM (active) | 0.34 µM (active) | 0.401 µM (active) | 0.461 µM (active) | 0.187 µM (active) | 0.486 µM (active) | 0.267 µM (active) | 0.292 µM (active) | 2.75 µM (inactive) | 0.615 µM (active) | 0.226 µM (active) | 0.41 µM (active) | 0.274 µM (active) | 1.09 µM (active) | 0.494 µM (active) |
| COc1ccc([C@@]23Oc4cc(OC)cc(OC)c4[C@]2(O)[C@H](O)[C@H](C(N)=O)[C@H]3c2ccccc2)cc1 [DIDESMETHYLROCAGLAMIDE] | < 0.01 µM (active) | < 0.01 µM (active) | < 0.01 µM (active) | < 0.01 µM (active) | < 0.0192 µM (active) | < 0.01 µM (active) | < 0.01 µM (active) | < 0.01 µM (active) | < 0.01 µM (active) | < 0.01 µM (active) | < 0.01 µM (active) | < 0.01 µM (active) | < 0.01 µM (active) | 0.0656 µM (active) | < 0.01 µM (active) | < 0.01 µM (active) | < 0.0106 µM (active) | < 0.01 µM (active) | 0.0105 µM (active) | < 0.01 µM (active) |
